Measurements reported in patent US7138361B2, “Herbicidal heterocycles” (E. I. du Pont de Nemours and Company, priority 2000, dated 2006).

Experiments:
Assay in all cases: Test D greenhouse paddy-water test in rice
Format in all cases: in vivo
Conditions in all cases: 500 g/ha alone, 21 days, 0-100 scale
Cyperus difformis (Cd) = system: Cyperus difformis (Cd)
Excerpt: (§1) Four plastic pots (ca. 16-cm diameter) per rate were partially filled with sterilized Tama silt loam soil comprised of a 35:50:15 ratio of sand, silt and clay and 2.6% organic matter. Separate plantings for each of the four pots were as follows. Seeds from the U.S. of Heteranthera limosa (Hl), Monochoria vaginalis (Mv), Ammania auriculata (Aa), and Sphenoclea zeylanica (Sz) were planted into one 16-cm pot for each rate. Seeds from the U.S. of Cyperus iria (Ci), Leptochloa fascicularis (Li), one stand of 9 or 10 direct-seeded rice seedlings (Oryza saliva cv. ‘Japonica—M202’; Oss), and one stand of 6 transplanted rice seedlings (Oryza sativa cv. ‘Japonica—M202’; Ost) were planted into one 16-cm pot for each rate. Seeds from the U.S. of Cyperus difformis (Cd), Alisma plantago-aquatica (Ap), and Scirpus mucronatus (Sm) were planted into one 16-cm pot for each rate. Seeds from the U.S. of Echinochloa crus-galli (Ecg), Echinochloa oryzicola (Eor), Echinochloa oryzoides (Eoz) and Echinochloa colonum (Ecc) were planted into one 16-cm pot for each rate. Plantings were sequential so that crop and weed species were at the 2.0 to 2.5-leaf stage at time of treatment.
(§2) Potted plants were grown in a greenhouse with day/night temperature settings of 29.5/26.7° C., and supplemental balanced lighting was provided to maintain a 16-hour photoperiod. Test pots were maintained in the greenhouse until test completion.
(§3) Chemical treatments consisting of Compound 1 of Index Table A (Cmpd 1), daimuron (Cmpd D), quinoclamine (Cmpd Q) and combinations thereof were formulated in acetone. At time of treatment, test pots were flooded to 3 cm above the soil surface, treated by application of test compounds directly to the paddy water, and then maintained at that water depth for the duration of the test. Effects of treatments on rice and weeds were visually evaluated by comparison to untreated controls after 21 days. Plant response ratings are reported on a 0 to 100 scale; where 0 is no effect and 100 is complete control. ND means no data.
(§4) Colby's equation was used to calculate the expected additive herbicidal effect of the mixtures of Compound 1 with daimuron (Cmpd D) and quinoclamine (Cmpd Q). Colby's equation (Colby, S. R “Calculating Synergistic and Antagonistic Responses of Herbicide Combinations,” Weeds, 15(1), pp 20–22 (1967)) calculates the expected additive effect of herbicidal mixtures, and for two active ingredients is of the form: Pa+b=Pa+Pb−(PaPb/100) wherein Pa+b is the percentage effect of the mixture expected from additive contribution of the individual components, • Pa is the observed percentage effect of the first active ingredient at the same use rate as in the mixture, and • Pb is the observed percentage effect of the second active ingredient at the same use rate as in the mixture.

[1] = system: Monochoria vaginalis (Mv)
Excerpt: as §1, §2, §3, §4

[2] = system: Echinochloa oryzicola (Eor)
Excerpt: as §1, §2, §3, §4

[3] = system: Alisma plantago-aquatica (Ap)
Excerpt: as §1, §2, §3, §4

[4] = system: Echinochloa oryzoides (Eoz)
Excerpt: as §1, §2, §3, §4

[5] = system: transplanted rice seedlings (Oryza sativa cv. 'Japonica—M202'; Ost)
Excerpt: as §1, §2, §3, §4

[6] = system: Echinochloa colonum (Ecc)
Excerpt: as §1, §2, §3, §4

Heteranthera limosa (Hl) = system: Heteranthera limosa (Hl)
Excerpt: as §1, §2, §3, §4

Cyperus iria (Ci) = system: Cyperus iria (Ci)
Excerpt: as §1, §2, §3, §4

Ammania auriculata (Aa) = system: Ammania auriculata (Aa)
Excerpt: as §1, §2, §3, §4

[7] = system: Sphenoclea zeylanica (Sz)
Excerpt: as §1, §2, §3, §4

[8] = system: Leptochloa fascicularis (Li)
Excerpt: as §1, §2, §3, §4

[9] = system: Echinochloa crus-galli (Ecg)
Excerpt: as §1, §2, §3, §4

[10] = system: direct-seeded rice seedlings (Oryza saliva cv. 'Japonica—M202'; Oss)
Excerpt: as §1, §2, §3, §4

Scirpus mucronatus (Sm) = system: Scirpus mucronatus (Sm)
Excerpt: as §1, §2, §3, §4

With `Cc1ccc(NC(=O)NC(C)(C)c2ccccc2)cc1` [daimuron, reference compound] the “Obs. (observed effect) Cd” value (Cyperus difformis (Cd)) was 60, the “Obs. (observed effect) Mv” value [1] was 30 and the “Obs. (observed effect) Eor” value [2] was 0. The “Obs. (observed effect) Ap” value [3] was 0, the “Obs. (observed effect) Eoz” value [4] was 0 and the “Obs. (observed effect) Ost” value [5] was 0. The “Obs. (observed effect) Ecc” value [6] was 0, the “Obs. (observed effect) Hl” value (Heteranthera limosa (Hl)) was 30 and the “Obs. (observed effect) Ci” value (Cyperus iria (Ci)) was 0. The “Obs. (observed effect) Aa” value (Ammania auriculata (Aa)) was 0, the “Obs. (observed effect) Sz” value [7] was 20 and the “Obs. (observed effect) Lf” value [8] was 0. The “Obs. (observed effect) Ecg” value [9] was 0 and the “Obs. (observed effect) Oss” value [10] was 0.

With `NC1=C(Cl)C(=O)c2ccccc2C1=O` [quinoclamine, reference compound] the “Obs. (observed effect) Cd” value (Cyperus difformis (Cd)) was 35, the “Obs. (observed effect) Mv” value [1] was 0 and the “Obs. (observed effect) Sm” value (Scirpus mucronatus (Sm)) was 0. The “Obs. (observed effect) Eor” value [2] was 30, the “Obs. (observed effect) Ap” value [3] was 60 and the “Obs. (observed effect) Eoz” value [4] was 0. For the same molecule, the “Obs. (observed effect) Ost” value [5] was 0, the “Obs. (observed effect) Ecc” value [6] was 0 and the “Obs. (observed effect) Hl” value (Heteranthera limosa (Hl)) was 0. For the same molecule, the “Obs. (observed effect) Ci” value (Cyperus iria (Ci)) was 0, the “Obs. (observed effect) Aa” value (Ammania auriculata (Aa)) was 0 and the “Obs. (observed effect) Sz” value [7] was 0. For the same molecule, the “Obs. (observed effect) Lf” value [8] was 0, the “Obs. (observed effect) Ecg” value [9] was 0 and the “Obs. (observed effect) Oss” value [10] was 0.
